Measured values from PubChem BioAssay (NCI).
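48-hour exposure; five concentrations; linearly interpolated endpoints. The concentration for 50% growth inhibition is given as GI50. TGI: concentration producing complete growth inhibition.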

Legend:
Assay in all cases: NCI anticancer screen, dose series, 48 h
MALME-3M melanoma = test system: MALME-3M melanoma
IGROV1 ovarian = test system: IGROV1 ovarian
EKVX NSCLC = test system: EKVX NSCLC
CCRF-CEM leukemia = test system: CCRF-CEM leukemia
NCI-H522 lung = test system: NCI-H522 lung
SF-539 CNS = test system: SF-539 CNS
K-562 leukemia = test system: K-562 leukemia
MDA-MB-435 = test system: MDA-MB-435
SK-MEL-5 melanoma = test system: SK-MEL-5 melanoma
RPMI-8226 leukemia = test system: RPMI-8226 leukemia

Row | SMILES | TGI (MALME-3M melanoma) | TGI (IGROV1 ovarian) | TGI (EKVX NSCLC) | TGI (CCRF-CEM leukemia) | TGI (NCI-H522 lung) | TGI (SF-539 CNS) | TGI (K-562 leukemia) | TGI (MDA-MB-435) | TGI (SK-MEL-5 melanoma) | TGI (RPMI-8226 leukemia) | GI50 (MALME-3M melanoma) | GI50 (EKVX NSCLC) | GI50 (SK-MEL-5 melanoma) | GI50 (CCRF-CEM leukemia) | GI50 (NCI-H522 lung) | GI50 (SF-539 CNS) | GI50 (K-562 leukemia) | GI50 (MDA-MB-435)
1 | COc1ccc2nc3ccc(OC)cc3c(S(=O)(=O)Cc3ccc([N+](=O)[O-])cc3)c2c1 | > 100 µM | > 100 µM | > 100 µM | > 100 µM | > 100 µM | > 100 µM | > 100 µM | > 100 µM | – | – | – | – | – | – | – | – | – | –
2 | CC(=O)OCC1OC(n2c3c(c(-c4ccco4)c(C#N)c2=S)CCC3)C(OC(C)=O)C(OC(C)=O)C1OC(C)=O (stereo not drawn) | > 100 µM | > 100 µM | – | – | – | > 100 µM | > 100 µM | > 100 µM | > 100 µM | > 100 µM | – | – | – | – | – | – | – | –
3 | Nc1c(-c2nc3ccccc3s2)c2ccc([N+](=O)[O-])cc2c(=O)n1-c1cccc(C(=O)O)c1 | – | – | – | 56.8 µM | > 100 µM | – | – | > 100 µM | > 100 µM | – | – | – | – | – | – | – | – | –
4 | CN(C)c1ccc(/C=C(\C#N)C(N)=C(C#N)C#N)cc1 | > 100 µM | > 100 µM | > 100 µM | > 100 µM | > 100 µM | > 100 µM | > 100 µM | > 100 µM | > 100 µM | – | – | – | – | – | – | – | – | –
5 | COCC1CCCN1c1ccc(/C=C(/C#N)C(N)=S)cc1 (stereo not drawn) | > 100 µM | – | > 100 µM | 20.6 µM | 61.4 µM | > 100 µM | > 100 µM | > 100 µM | > 100 µM | – | > 100 µM | > 100 µM | 89.1 µM | 5.04 µM | 12.7 µM | > 100 µM | 30.2 µM | 15 µM
6 | CC1=C2c3c(C)ccc4ccc(C)c(c34)C2(O)C(C)C1=O (stereo not drawn) | – | > 100 µM | > 100 µM | – | > 100 µM | > 100 µM | > 100 µM | > 100 µM | > 100 µM | > 100 µM | – | – | – | – | – | – | – | –
7 | CC1CC[C@@]2(OC1)OC1C[C@H]3[C@@H]4C/C(=N\N(C)C)[C@@]5(O)CC(O)CC[C@]5(C)[C@H]4CC[C@]3(C)C1[C@@H]2C (stereo partly drawn) | 83.7 µM | > 100 µM | – | > 100 µM | – | > 100 µM | > 100 µM | > 100 µM | > 100 µM | > 100 µM | – | – | – | – | – | – | – | –
8 | NC(=O)N1N=C2c3ccccc3CC[C@@H]2C1c1ccccc1 (stereo partly drawn) | > 100 µM | > 100 µM | > 100 µM | > 100 µM | > 100 µM | > 100 µM | > 100 µM | – | > 100 µM | > 100 µM | – | – | – | – | – | – | – | –
9 | Cc1cccc2c1Oc1cc(Cl)ccc1C2NC(=O)CCN1CCN(CCO)CC1 (stereo not drawn) | – | > 100 µM | 70.5 µM | 37.9 µM | 23.2 µM | 26 µM | 40.6 µM | 27.5 µM | 27 µM | – | – | – | – | – | – | – | – | –
10 | CC1(C)C(=O)C(C)(C)C12SSC1(S2)C(C)(C)C(=O)C1(C)C | > 100 µM | > 100 µM | > 100 µM | – | – | > 100 µM | > 100 µM | > 100 µM | > 100 µM | > 100 µM | – | – | – | – | – | – | – | –
11 | O=C1CN2Cc3cc(N4CCOCC4)ccc3N=C2N1 | > 100 µM | > 100 µM | – | > 100 µM | – | – | > 100 µM | > 100 µM | > 100 µM | > 100 µM | – | – | – | – | – | – | – | –
12 | CCCCCCOc1ccc(C(=O)NOCc2ccccc2)cc1 | – | > 100 µM | > 100 µM | > 100 µM | > 100 µM | > 100 µM | > 100 µM | > 100 µM | > 100 µM | > 100 µM | – | – | – | – | – | – | – | –
13 | N#CCCN(CCC#N)c1ccc(C(N=Nc2ccccc2)=Nc2ccccc2)cc1 | – | > 100 µM | > 100 µM | > 100 µM | > 100 µM | > 100 µM | > 100 µM | > 100 µM | > 100 µM | > 100 µM | – | – | – | – | – | – | – | –
14 | COc1cccc(NC(=S)Nn2c(C)nc3ccccc3c2=O)c1 | > 100 µM | > 100 µM | – | > 100 µM | > 100 µM | > 100 µM | > 100 µM | – | > 100 µM | > 100 µM | – | – | – | – | – | – | – | –
15 | CCCn1c(SCC)c2ccccc2c1-c1nc(F)nc(F)n1 | > 100 µM | – | > 100 µM | > 100 µM | > 100 µM | > 100 µM | > 100 µM | – | – | > 100 µM | – | – | – | – | – | – | – | –
16 | O=C(/C=C/c1ccc(Cl)cc1)Oc1ccc(/C=C2\CCCCC2=O)cc1 | > 100 µM | > 100 µM | > 100 µM | > 100 µM | > 100 µM | > 100 µM | – | > 100 µM | > 100 µM | > 100 µM | – | – | – | – | – | – | – | –
17 | COC1=CC(=O)[C@H]2[C@H](C)C(c3ccccc3)[C@@]2(C)C1=O (stereo partly drawn) | > 100 µM | > 100 µM | > 100 µM | > 100 µM | > 100 µM | > 100 µM | > 100 µM | – | > 100 µM | > 100 µM | – | – | – | – | – | – | – | –
18 | O=C1CCC[C@]2(CCC[C@@H](O)C2)N1 | > 100 µM | > 100 µM | > 100 µM | > 100 µM | > 100 µM | > 100 µM | > 100 µM | – | > 100 µM | – | – | – | – | – | – | – | – | –
19 | COC(=O)C1=C(C(=O)OC)C2(OC(C)=O)c3ccccc3-c3ccccc3C12 (stereo not drawn) | 5.83 µM | 10.1 µM | 24.1 µM | – | 2.8 µM | 31.6 µM | – | – | 27.3 µM | 6.56 µM | – | – | – | – | – | – | – | –
20 | N#Cc1c(-c2ccco2)cc(-c2ccc(NCc3nc4ccccc4[nH]3)cc2)nc1N | 51.5 µM | > 100 µM | – | > 100 µM | 55.5 µM | 47.6 µM | 71.7 µM | – | 29.9 µM | 62 µM | – | – | – | – | – | – | – | –
21 | O=C(O)C1CCCN1Cc1cc2ccccc2c2ccccc12 (stereo not drawn) | > 100 µM | > 100 µM | > 100 µM | – | > 100 µM | > 100 µM | > 100 µM | > 100 µM | > 100 µM | > 100 µM | – | – | – | – | – | – | – | –
22 | COc1cc2c(c(C)c1O)[C@H]1COc3ccccc3[C@H]1O2 | 89.1 µM | 31.3 µM | 74.7 µM | 56.6 µM | 13.5 µM | 36.7 µM | 56.5 µM | – | 22.9 µM | 75.3 µM | – | – | – | – | – | – | – | –
23 | CC1(C)CC(=O)C2=C(C1)c1c(ccc3ccccc13)NC2c1cn(Cc2ccc(Cl)cc2)c2ccccc12 (stereo not drawn) | – | > 100 µM | > 100 µM | > 100 µM | > 100 µM | > 100 µM | > 100 µM | > 100 µM | > 100 µM | > 100 µM | – | – | – | – | – | – | – | –
